In PubChem BioAssay AID248 (DTP/NCI, 2004):
Where “and” joins values, the source holds several entries; their conditions need not be identical. Identical values can stand only once. Toxic doses and inconclusive results are not listed. No stated cut-off is given here; in the data, active means T/C of 150% or more; inactive means T/C below 125%.

Tested on: L1210 leukemia ip in BDF1 mice, survival T/C
Experiment: NCI In Vivo Anticancer Drug Screen. Data for tumor model L1210 Leukemia (intraperitoneal) in B6D2F1 (BDF1) mice
Conditions: endpoint: mean survival time, higher = longer survival
How it was run: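 Transplantable tumor model; survival measured in treated vs vehicle control mice. Value = treated/control.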

[1] = dose: 12.5 mg/kg/injection, schedule: Q04DX002 (ip), vehicle: Klucel (hydroxypropylcellulose) (HPC)
[2] = dose: 25.0 mg/kg/injection, schedule: Q04DX002 (ip), vehicle: Klucel (hydroxypropylcellulose) (HPC)
[3] = dose: 100.0 mg/kg/injection, schedule: Q01DX009 (ip), vehicle: Klucel (hydroxypropylcellulose) (HPC)
[4] = dose: 200.0 mg/kg/injection, schedule: Q01DX009 (ip), vehicle: Klucel (hydroxypropylcellulose) (HPC)
[5] = dose: 100.0 mg/kg/injection, schedule: Q01DX001 (ip), vehicle: saline
[6] = dose: 200.0 mg/kg/injection, schedule: Q01DX001 (ip), vehicle: saline
[7] = dose: 400.0 mg/kg/injection, schedule: Q01DX001 (ip), vehicle: saline
[8] = dose: 100.0 mg/kg/injection, schedule: Q01DX001 (ip), vehicle: carboxymethylcellulose (CMC)
[9] = dose: 200.0 mg/kg/injection, schedule: Q01DX001 (ip), vehicle: carboxymethylcellulose (CMC)
[10] = dose: 400.0 mg/kg/injection, schedule: Q01DX001 (ip), vehicle: carboxymethylcellulose (CMC)
[11] = dose: 100.0 mg/kg/injection, schedule: Q04DX003 (ip), vehicle: saline
[12] = dose: 200.0 mg/kg/injection, schedule: Q04DX003 (ip), vehicle: saline
[13] = dose: 400.0 mg/kg/injection, schedule: Q04DX003 (ip), vehicle: saline
[14] = dose: 400.0 mg/kg/injection, schedule: Q04DX002 (ip), vehicle: saline with Tween-80
[15] = dose: 100.0 mg/kg/injection, schedule: Q04DX003 (ip), vehicle: saline with Tween-80
[16] = dose: 200.0 mg/kg/injection, schedule: Q04DX003 (ip), vehicle: saline with Tween-80
[17] = dose: 400.0 mg/kg/injection, schedule: Q04DX003 (ip), vehicle: saline with Tween-80
[18] = dose: 50.0 mg/kg/injection, schedule: Q01DX009 (ip), vehicle: Klucel (hydroxypropylcellulose) (HPC)

Measured: T/C

Cc1c([N+](=O)[O-])cc(C(C)(C)C)c(O)c1[N+](=O)[O-]
inactive: dose: 6.25 mg/kg/injection, schedule: Q01DX009 (ip), vehicle: saline with Tween-80 95 % of control | dose: 12.5 mg/kg/injection, schedule: Q01DX009 (ip), vehicle: saline with Tween-80 91 % of control | [1] 110 % of control | [2] 112 % of control | dose: 25.0 mg/kg/injection, schedule: Q04DX002 (ip), vehicle: saline with Tween-80 89 % of control

O=C(O)c1c(Br)c(Br)c(Br)c(Br)c1C(=O)Nc1ccccc1C(F)(F)F
inactive: [3] 101 % of control | [4] 93 % of control

C#CC(O)(c1ccccc1)c1ccccc1
inactive: [5] 103 % of control | [6] 107 % of control | [7] 100 % of control

O=[N+]([O-])c1cncn1CCN1CCOCC1
inactive: [8] 88 % of control | [9] 88 % of control | [10] 94 % of control

Nc1nc2c(c(-c3ccc(Cl)cc3)n1)CN(CCCC(=O)O)C2=O
inactive: [5] 105 % of control | [11] 96 % of control | [6] 98 % of control | [12] 104 % of control | [7] 100 % of control | [13] 107 % of control

COc1c(NC(=O)Nc2ccccc2Cl)cccc1[N+](=O)[O-]
inactive: [14] 90 % of control

OC/C(=N/Nc1ccc2ccccc2n1)c1ccccc1
inactive: dose: 100.0 mg/kg/injection, schedule: Q01DX009 (ip), vehicle: saline with Tween-80 94 % of control | [15] 93 % of control | dose: 200.0 mg/kg/injection, schedule: Q01DX009 (ip), vehicle: saline with Tween-80 93 % of control | [16] 100 % of control | dose: 400.0 mg/kg/injection, schedule: Q01DX009 (ip), vehicle: saline with Tween-80 93 % of control | [17] 89 % of control

c1ccc(-c2nc[nH]c2-c2ccccc2)cc1
inactive: [3] 96 % of control | dose: 100.0 mg/kg/injection, schedule: Q04DX003 (ip), vehicle: Klucel (hydroxypropylcellulose) (HPC) 105 % of control | [4] 91 % of control | dose: 200.0 mg/kg/injection, schedule: Q04DX003 (ip), vehicle: Klucel (hydroxypropylcellulose) (HPC) 100 % of control | dose: 400.0 mg/kg/injection, schedule: Q01DX009 (ip), vehicle: Klucel (hydroxypropylcellulose) (HPC) 96 % of control | dose: 400.0 mg/kg/injection, schedule: Q04DX003 (ip), vehicle: Klucel (hydroxypropylcellulose) (HPC) 100 % of control

CC(O)C#N (configuration not stated)
inactive: dose: 0.63 mg/kg/injection, schedule: Q04DX003 (ip), vehicle: saline 102 % of control | dose: 1.25 mg/kg/injection, schedule: Q04DX003 (ip), vehicle: saline 115 % of control | dose: 2.5 mg/kg/injection, schedule: Q04DX003 (ip), vehicle: saline 115 % of control | dose: 5.0 mg/kg/injection, schedule: Q04DX003 (ip), vehicle: saline 103 % of control

O=S(=O)(CCCl)CCc1ccccc1
inactive: dose: 100.0 mg/kg/injection, schedule: Q04DX002 (ip), vehicle: saline with Tween-80 96 % of control | dose: 200.0 mg/kg/injection, schedule: Q04DX002 (ip), vehicle: saline with Tween-80 89 % of control | [14] 93 % of control

CCNCCNc1ccc(CO)c2sc3cc(Cl)ccc3c(=O)c12
inactive: dose: 25.0 mg/kg/injection, schedule: Q01DX009 (ip), vehicle: Klucel (hydroxypropylcellulose) (HPC) 99 % of control | [18] 100 % of control

Cc1cccc(NCC(=O)NN)c1C
inactive: dose: 50.0 mg/kg/injection, schedule: Q01DX009 (ip), vehicle: carboxymethylcellulose (CMC) 102 % of control and 104 % of control | dose: 50.0 mg/kg/injection, schedule: Q04DX002 (ip), vehicle: carboxymethylcellulose (CMC) 96 % of control and 101 % of control | dose: 50.0 mg/kg/injection, schedule: Q04DX003 (ip), vehicle: carboxymethylcellulose (CMC) 102 % of control | dose: 100.0 mg/kg/injection, schedule: Q01DX009 (ip), vehicle: carboxymethylcellulose (CMC) 104 % of control and 106 % of control | dose: 100.0 mg/kg/injection, schedule: Q04DX002 (ip), vehicle: carboxymethylcellulose (CMC) 101 % of control and 103 % of control | dose: 100.0 mg/kg/injection, schedule: Q04DX003 (ip), vehicle: carboxymethylcellulose (CMC) 102 % of control | dose: 200.0 mg/kg/injection, schedule: Q01DX009 (ip), vehicle: carboxymethylcellulose (CMC) 97 % of control | dose: 200.0 mg/kg/injection, schedule: Q04DX002 (ip), vehicle: Klucel (hydroxypropylcellulose) (HPC) 92 % of control | dose: 200.0 mg/kg/injection, schedule: Q04DX002 (ip), vehicle: carboxymethylcellulose (CMC) 104 % of control and 107 % of control | dose: 200.0 mg/kg/injection, schedule: Q04DX003 (ip), vehicle: carboxymethylcellulose (CMC) 90 % of control | dose: 400.0 mg/kg/injection, schedule: Q04DX002 (ip), vehicle: Klucel (hydroxypropylcellulose) (HPC) 113 % of control

CCc1ccc(N=Nc2ccc(Br)cc2)cc1
inactive: [8] 93 % of control | [9] 98 % of control | [10] 98 % of control

COc1ccc(NC(=O)CC(C)=O)cc1
inactive: dose: 100.0 mg/kg/injection, schedule: Q01DX001 (ip), vehicle: other 92 % of control | [15] 94 % of control | dose: 200.0 mg/kg/injection, schedule: Q01DX001 (ip), vehicle: other 97 % of control | [16] 100 % of control | dose: 400.0 mg/kg/injection, schedule: Q01DX001 (ip), vehicle: other 103 % of control | [17] 99 % of control

Cc1ncc(CCl)n1Cc1ccccc1
inactive: dose: 6.25 mg/kg/injection, schedule: Q04DX002 (ip), vehicle: saline 95 % of control and 87 % of control | [1] 110 % of control | dose: 12.5 mg/kg/injection, schedule: Q04DX002 (ip), vehicle: saline 114 % of control and 90 % of control | dose: 25.0 mg/kg/injection, schedule: Q01DX009 (ip), vehicle: saline 94 % of control and 104 % of control | [2] 95 % of control | dose: 50.0 mg/kg/injection, schedule: Q01DX001 (ip), vehicle: saline 96 % of control | dose: 50.0 mg/kg/injection, schedule: Q01DX009 (ip), vehicle: saline 93 % of control and 119 % of control | dose: 50.0 mg/kg/injection, schedule: Q04DX002 (ip), vehicle: Klucel (hydroxypropylcellulose) (HPC) 100 % of control | [5] 97 % of control | dose: 100.0 mg/kg/injection, schedule: Q01DX009 (ip), vehicle: saline 89 % of control and 90 % of control | [11] 90 % of control | [12] 93 % of control

COc1ccc([N+](=O)[O-])cc1NC(=O)Nc1cccc(O)c1
inactive: [18] 90 % of control | [3] 90 % of control | [4] 90 % of control

COc1ccc(Cl)cc1NC1=CC(c2ccc(Cl)cc2)OC1=O (configuration not stated)
inactive: [15] 102 % of control | [16] 100 % of control | [17] 91 % of control

CCOC(=O)C1CCCCC1
inactive: [11] 102 % of control | [12] 98 % of control | [13] 91 % of control
